We go through eleven compounds from publication PMC4507497 (Chemistry & biology, 2015).

pEC50, pKi: −log10 of the molar value. Values joined by “and” are separate entries in the source; they are usually repeats but may differ in a detail not shown here. Identical values can stand only once. No end group written: not given here.

One experiment has as its target Frog KOR (Lithobates pipiens, UniProt B0JCV9). Description: Inhibition of isoproterenol-induced cAMP production. Type of experiment: cell-based, Rana pipiens. A general note: Cyclic AMP is a second messenger, typically raised through Gs and lowered through Gi signalling.
Another experiment addresses Frog MOR (rpMOR) (Lithobates pipiens, UniProt Q7T069). The experiment is described as follows: cell-based. Also noted: species or system Rana pipiens.
Another experiment deals with Frog DOR. Type of experiment: cell-based, Rana pipiens. The following applies: Table 2, HEK 293T cells; for pEC50: NA = not active.
In experiment [1] the test system is rpDOR mutants Met287Leu, Asn294Asp and Tyr296Leu. Description: Functional studies, rpDOR mutants Met287Leu, Asn294Asp and Tyr296Leu. Type of experiment: cell-based, Rana pipiens. To be noted: data not shown.
The subject of experiment [2] is ORs in the brains and spinal cord. To be noted: Rana pipiens tissue; cited from earlier work.
The subject of a further experiment is human DOR (Leu300Trp). Description: Inhibition of cAMP response, hDOR Leu300Trp mutant. Type of experiment: cell-based. The following applies: hDOR Leu300Trp vs hDOR.
Another experiment relates to rpDOR Trp301Leu (7.35). Description: Functional and binding studies, rpDOR mutant Trp301Leu. Type of experiment: cell-based, Rana pipiens.
Another experiment has as its target Human KOR (Homo sapiens, UniProt P41145). Description: cell-based.
Experiment [3] concerns the target Human DOR (Homo sapiens, UniProt P41143). The experiment is described as follows: cell-based.
Experiment [4] deals with h-rpMOR-E2h (h-rpMOR-EL2h). Description: Inhibition of isoproterenol-stimulated cAMP response, chimera h-rpMOR-E2h. Type of experiment: cell-based, human / Rana pipiens. The following applies: for pEC50 / log EC50 ±SEM: Table 3, h-rpMOR-E2h, HEK 293T cells.
For experiment [5], the system named is h-rpMOR-E3h (h-rpMOR-EL3h). The experiment is described as follows: Inhibition of isoproterenol-stimulated cAMP response, chimera h-rpMOR-E3h. Type of experiment: cell-based, human / Rana pipiens. The following applies: for pEC50 / log EC50 ±SEM: Table 3, h-rpMOR-E3h, HEK 293T cells.
Experiment [6] has as its system h-rpMOR-wt (rpMOR with humanized N-terminus). Description: Inhibition of isoproterenol-stimulated cAMP response, chimera h-rpMOR-wt. Type of experiment: cell-based, human / Rana pipiens. To be noted: Table 3, HEK 293T cells.
Another experiment relates to three tested frog ORs. Description: cAMP inhibition, the three tested frog ORs. To be noted: frog KOR, MOR, DOR; cAMP assay. Type of experiment: cell-based, Rana pipiens.
A further experiment deals with rpMOR. Description: Competition binding with radiolabeled diprenorphine, rpMOR. Set-up: species or system Rana pipiens. The following applies: Table 3, [3H]-diprenorphine competition.
The target of a further experiment is h-rpMOR-E3h. Description: Competition binding with radiolabeled diprenorphine, h-rpMOR-E3h. Also noted: species or system human / Rana pipiens. To be noted: Table 3, [3H]-diprenorphine competition.
A further experiment addresses h-rpMOR-wt. Description: Competition binding with radiolabeled diprenorphine, h-rpMOR-wt. Also noted: species or system human / Rana pipiens. The following applies: Table 3, [3H]-diprenorphine competition.
The target in experiment [7] is h-rpMOR-E2h (h-rpMOR EL2h). The experiment is described as follows: Competition binding with radiolabeled diprenorphine, h-rpMOR-E2h. Set-up: species or system human / Rana pipiens. To be noted: Table 3, [3H]-diprenorphine competition.
Experiment [8] concerns human DOR. To be noted: human (but not murine) DOR; cited from earlier work.
The mark [9] stands for this setting: relative to chimera with humanized N-terminus only.

Frog KOR, sequence (B0JCV9 1-390): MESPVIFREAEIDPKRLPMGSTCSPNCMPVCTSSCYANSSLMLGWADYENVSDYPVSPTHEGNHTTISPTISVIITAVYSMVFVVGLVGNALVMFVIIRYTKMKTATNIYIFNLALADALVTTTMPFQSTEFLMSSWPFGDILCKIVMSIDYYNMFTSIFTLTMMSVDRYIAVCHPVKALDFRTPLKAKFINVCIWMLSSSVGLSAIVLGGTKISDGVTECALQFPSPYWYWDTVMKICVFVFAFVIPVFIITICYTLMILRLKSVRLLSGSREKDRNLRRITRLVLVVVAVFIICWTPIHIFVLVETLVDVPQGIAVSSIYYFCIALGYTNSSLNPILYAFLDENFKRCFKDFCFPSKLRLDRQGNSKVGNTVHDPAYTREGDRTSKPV
Frog MOR (rpMOR), sequence (Q7T069 1-388): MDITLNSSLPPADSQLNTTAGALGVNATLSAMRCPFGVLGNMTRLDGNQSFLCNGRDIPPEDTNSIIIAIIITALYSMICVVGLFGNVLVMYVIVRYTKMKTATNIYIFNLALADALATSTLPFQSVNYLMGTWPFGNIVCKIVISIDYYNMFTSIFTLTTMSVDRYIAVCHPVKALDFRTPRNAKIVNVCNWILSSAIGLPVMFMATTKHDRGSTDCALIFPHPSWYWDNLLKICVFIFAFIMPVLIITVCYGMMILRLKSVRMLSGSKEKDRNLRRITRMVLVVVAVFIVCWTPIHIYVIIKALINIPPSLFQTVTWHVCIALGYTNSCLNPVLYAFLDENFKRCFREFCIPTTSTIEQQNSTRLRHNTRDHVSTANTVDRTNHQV
Human DOR, sequence (P41143 whole entry): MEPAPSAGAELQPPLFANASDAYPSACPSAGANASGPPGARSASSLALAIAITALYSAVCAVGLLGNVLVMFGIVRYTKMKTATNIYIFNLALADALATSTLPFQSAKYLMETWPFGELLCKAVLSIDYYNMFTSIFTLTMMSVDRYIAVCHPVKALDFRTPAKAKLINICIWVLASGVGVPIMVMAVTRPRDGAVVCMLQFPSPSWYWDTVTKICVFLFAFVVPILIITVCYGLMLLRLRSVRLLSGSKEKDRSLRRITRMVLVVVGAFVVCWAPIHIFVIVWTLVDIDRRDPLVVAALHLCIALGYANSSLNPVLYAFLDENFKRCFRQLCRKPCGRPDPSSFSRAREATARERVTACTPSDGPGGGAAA
Human KOR, sequence (P41145 whole entry): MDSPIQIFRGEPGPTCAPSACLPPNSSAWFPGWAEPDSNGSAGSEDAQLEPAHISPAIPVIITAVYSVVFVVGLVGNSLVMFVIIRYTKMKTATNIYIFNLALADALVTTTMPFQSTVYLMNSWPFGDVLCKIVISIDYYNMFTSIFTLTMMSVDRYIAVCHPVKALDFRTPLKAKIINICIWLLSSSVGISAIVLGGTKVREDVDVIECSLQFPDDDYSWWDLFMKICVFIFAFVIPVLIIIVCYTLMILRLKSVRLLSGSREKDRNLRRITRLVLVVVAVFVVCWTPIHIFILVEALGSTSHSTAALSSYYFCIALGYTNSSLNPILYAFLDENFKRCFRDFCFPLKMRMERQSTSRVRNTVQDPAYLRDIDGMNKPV

For the compound YGGFIRKPDKYKFLNA [Xendorphin], the “activity at frog and human KORs compared” value on Frog KOR was “equally active”.

Take `CC(C)C[C@@H](NC(=O)[C@H](Cc1ccccc1)NC(=O)CNC(=O)[C@@H](C)NC(=O)[C@@H](N)Cc1ccc(O)cc1)C(=O)O` [DADLE, [D-Ala^2,D-Leu^5]-enkephalin]: the pEC50 at Frog MOR (rpMOR) (EC50) was 6.32; at Frog MOR (rpMOR) (log EC50 ±SEM) it was 6.30; in the experiment with Frog DOR, 6.45. The “log EC50 ±SEM” value with Frog DOR is reported as −6.5±0.06 logM.

deltorphin: the “response of the mutants” value in experiment [1] is recorded as “did not respond”. Moreover, in [2], the “affinities to ORs in the brains and spinal cord” value is 30 to 80 µM. For the same compound, the “decrease of potency by the L300W mutation” value in the experiment with human DOR (Leu300Trp) is recorded as about 2000 fold. In the experiment with rpDOR Trp301Leu (7.35), the “response of the mutant compared to rpDOR” value is “substantially increased potency and affinity”.

Take YGGFLRKYPK [α-Neoendorphin]: the pEC50 was 7.96 on Human KOR (EC50); 8.00 on Human KOR (log EC50 ±SEM); 7.11 on Frog KOR (EC50); 7.10 at Frog KOR (log EC50 ±SEM); 5.80 with Frog DOR; 5.80 on Human DOR [3] (EC50). This compound also gave a pEC50 at Human DOR [3] (log EC50 ±SEM) of 5.80. Also, the “fold less potent at the frog KOR” value on Frog KOR is 10 fold. Further, the “log EC50 ±SEM” value in the experiment with Frog DOR is −5.8±0.08 logM.

With `CC(C)C[C@H](NC(=O)[C@H](Cc1ccccc1)NC(=O)CNC(=O)CNC(=O)[C@@H](N)Cc1ccc(O)cc1)C(=O)N[C@@H](CCCN=C(N)N)C(=O)N[C@@H](CCCN=C(N)N)C(=O)N[C@@H](CCC(N)=O)C(=O)N[C@@H](Cc1ccccc1)C(=O)N[C@@H](CCCCN)C(=O)N[C@H](C(=O)N[C@H](C(=O)N[C@H](C(=O)O)[C@@H](C)O)C(C)C)C(C)C` [Dynorphin B], the pEC50 at Frog MOR (rpMOR) (EC50) is 5.28; on Frog MOR (rpMOR) (log EC50 ±SEM) it was 5.30; at Frog KOR (EC50), 6.77; on Frog KOR (log EC50 ±SEM) it was 6.80; on Human DOR [3] (EC50), 6.44; at Human DOR [3] (log EC50 ±SEM), 6.40.

`NC(=O)[C@H](Cc1ccccc1)NC(=O)[C@H](Cc1ccccc1)NC(=O)[C@@H]1CCCN1C(=O)[C@@H](N)Cc1ccc(O)cc1` [Endomorphin 2]: the pEC50 at Frog MOR (rpMOR) (EC50) is 6.11 and 6.04; at Frog MOR (rpMOR) (log EC50 ±SEM), 6.10 and 6.00; in experiment [4], 6.72; in [5], 7.49; in experiment [6], 7.03. In addition, in experiment [4], the “log EC50 ±SEM” value is on record as −6.7 ± 0.32 M.

In the case of `CC(C)[C@H](NC(=O)[C@H](CC(=O)O)NC(=O)[C@H](Cc1ccccc1)NC(=O)[C@@H](C)NC(=O)[C@@H](N)Cc1ccc(O)cc1)C(=O)N[C@H](C(=O)NCC(N)=O)C(C)C` [Deltorphin C, Tyr-D-Ala-Phe-Asp-Val-Val-Gly-NH2], in the experiment on three tested frog ORs, the “agonist activity at the three tested frog ORs” value was “inactive”.

For `C[C@@H](NC(=O)[C@@H](N)Cc1ccc(O)cc1)C(=O)NCC(=O)N(C)[C@@H](Cc1ccccc1)C(=O)NCCO` [DAMGO, [D-Ala^2,N-MePhe^4,Gly-ol]-enkephalin], the pEC50 is 5.82 and 5.72 on Frog MOR (rpMOR) (EC50); 5.80 and 5.70 on Frog MOR (rpMOR) (log EC50 ±SEM); 7.09 in experiment [4]; 5.62 on Frog KOR (EC50, Table 2, HEK 293T cells, NA = not active); 5.60 on Frog KOR (log EC50 ±SEM, Table 2, HEK 293T cells); 7.66 in [5]. Besides, the pEC50 in [6] was 7.02. Moreover, the “log EC50 ±SEM” value is −7.1 ± 0.07 M in [4], −7.7 ± 0.07 M in [5] and −7.0 ± 0.08 M in experiment [6]. Also, the pKi on rpMOR is 6.80; at h-rpMOR-E3h, 6.92; at h-rpMOR-wt, 7.00; in experiment [7], 7.10.

`NC(=O)[C@H](Cc1ccccc1)NC(=O)[C@H](Cc1c[nH]c2ccccc12)NC(=O)[C@@H]1CCCN1C(=O)[C@@H](N)Cc1ccc(O)cc1` [Endomorphin 1]: the pEC50 on Frog MOR (rpMOR) (EC50) is 6.42 and 6.44; at Frog MOR (rpMOR) (log EC50 ±SEM), 6.40 and 6.50; in experiment [4], 7.02; in experiment [6], 7.37. The “log EC50 ±SEM” value in [6] is reported as −7.4 ± 0.07 M.

For DIPP-NH2, the agonist activity result in the experiment on human DOR [8] is “weak partial agonist activity”.

Take `C[C@@H](NC(=O)[C@@H](N)Cc1ccc(O)cc1)C(=O)N[C@@H](Cc1ccccc1)C(=O)NCC(=O)N[C@@H](Cc1ccc(O)cc1)C(=O)N1CCC[C@H]1C(=O)N[C@@H](CO)C(N)=O` [Dermorphin]: the “affinities to ORs in the brains and spinal cord” value in [2] was 30 to 80 µM. The pEC50 in experiment [4] is 7.40; in experiment [5], 6.89; in [6], 6.64. The “log EC50 ±SEM” value in experiment [4] is given as −7.4 ± 0.07 M; in experiment [5] it was −6.9 ± 0.1 M; in [6], −6.7 ± 0.08 M. Besides, the “enhancement of receptor activation by humanization of EL2” value in experiment [4] (setting [9]) is listed as ~ 10 fold. Moreover, the results for the pKi (on rpMOR; in experiment [7]) were 5.79 and 6.95, respectively. For the same compound, in experiment [5] (setting [9]), the “enhancement of receptor activation by humanization of EL3” value was ~ 2 fold.

In general, pEC50 refers to the EC50 on a negative log10 scale, so that one unit is a factor of ten. Read a high pEC50 as a small EC50. A word on the pKi: it is the negative decadic logarithm of the Ki, by convention in mol/L. A high value points to a low Ki.
